The source of these data is PMC10648541, “Design, Synthesis, and Antiproliferative Activity of Selective Histone Deacetylases 6 Inhibitors Containing a Tetrahydropyridopyrimidine Scaffold” (Molecules, 2023).

Some results are limits rather than exact numbers.

Assay [1] deals with T1, HDAC1 (Homo sapiens, UniProt Q13547).
T1 construct: purchased Reaction Biology Corporation
As to the kind of experiment: In vitro HDAC enzyme assay (Reaction Biology Corporation), HDAC1. The format is biochemical. The conditions noted are these: Table 1; duplicate, SD < 15%.

The target in assay [2] is T2, HDAC6 (Homo sapiens, UniProt Q9UBN7).
T2 construct: purchased Reaction Biology Corporation
T2 sequence (Q9UBN7 1-1215): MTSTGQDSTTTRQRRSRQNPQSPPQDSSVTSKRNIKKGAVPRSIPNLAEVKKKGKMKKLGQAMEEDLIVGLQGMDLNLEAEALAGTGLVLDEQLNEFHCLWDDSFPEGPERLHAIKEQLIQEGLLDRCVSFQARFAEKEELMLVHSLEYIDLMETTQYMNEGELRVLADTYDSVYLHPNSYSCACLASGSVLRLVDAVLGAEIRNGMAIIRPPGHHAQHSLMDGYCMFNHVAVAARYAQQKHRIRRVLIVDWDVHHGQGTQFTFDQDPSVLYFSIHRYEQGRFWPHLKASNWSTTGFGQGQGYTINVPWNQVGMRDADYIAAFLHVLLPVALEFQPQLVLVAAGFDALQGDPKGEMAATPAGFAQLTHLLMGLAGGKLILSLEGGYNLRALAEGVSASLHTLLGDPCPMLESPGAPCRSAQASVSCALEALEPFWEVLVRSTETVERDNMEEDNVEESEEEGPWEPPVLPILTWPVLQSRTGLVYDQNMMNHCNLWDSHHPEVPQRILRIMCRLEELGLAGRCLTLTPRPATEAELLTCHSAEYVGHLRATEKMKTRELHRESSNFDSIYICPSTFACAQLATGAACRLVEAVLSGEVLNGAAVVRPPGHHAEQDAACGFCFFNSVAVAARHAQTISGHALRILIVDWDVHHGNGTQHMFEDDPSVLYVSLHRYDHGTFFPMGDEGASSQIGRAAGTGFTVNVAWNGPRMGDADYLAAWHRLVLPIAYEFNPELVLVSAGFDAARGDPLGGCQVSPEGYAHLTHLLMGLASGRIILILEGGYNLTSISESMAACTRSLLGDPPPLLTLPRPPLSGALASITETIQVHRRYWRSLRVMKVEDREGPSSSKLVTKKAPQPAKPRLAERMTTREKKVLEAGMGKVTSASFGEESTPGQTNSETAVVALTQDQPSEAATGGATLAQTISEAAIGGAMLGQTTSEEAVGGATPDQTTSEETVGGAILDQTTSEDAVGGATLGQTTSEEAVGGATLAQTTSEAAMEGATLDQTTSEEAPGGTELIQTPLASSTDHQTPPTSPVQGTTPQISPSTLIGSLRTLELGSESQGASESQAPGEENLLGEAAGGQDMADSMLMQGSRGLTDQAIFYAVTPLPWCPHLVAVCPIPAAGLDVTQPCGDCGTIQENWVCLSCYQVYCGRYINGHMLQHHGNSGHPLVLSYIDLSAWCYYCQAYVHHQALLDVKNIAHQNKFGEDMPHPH
As to the kind of experiment: In vitro HDAC enzyme assay (Reaction Biology Corporation), HDAC6. The format is biochemical.

The subject of assay [3] is HCT116. In words: Antiproliferative assay (Alamar blue, 72 h), HCT116. The assay is classed as cell-based. The conditions noted are these: Homo sapiens, HCT-116, HCT116 cells, three independent experiments, SD < 10%, read-out: Antiproliferative effect IC50, HCT116. On the technique in general: The colour change of resazurin is a common sign of viable cells or microbes.
In assay [4] the test system is 59 different tumor cell lines. In words: NCI-60 antiproliferative evaluation, whole panel. The assay is classed as cell-based. The conditions noted are these: 10 μM, of 59 tumor cell lines. The text has this:
(§1) Then, 8f was submitted to NCI for antiproliferative evaluation against 59 different tumor cell lines. The cancer types of the NCI-60 program include leukemia, non-small cell lung cancer (NSCLC), colon cancer, CNS cancer, melanoma, ovary cancer, renal cancer, prostate cancer, and breast cancer.

Assay [5] concerns CCRF-CEM. As to the kind of experiment: NCI-60 antiproliferative screening, CCRF-CEM. The format is cell-based. The conditions noted are these: Homo sapiens, CCRF-CEM (Leukemia), read-out: Inhibition% values at 10 μM concentration.
Source text: as §1

The subject of assay [6] is A549/ATCC. In words: NCI-60 antiproliferative screening, A549/ATCC. The assay is classed as cell-based. The conditions noted are these: Homo sapiens, A549/ATCC (Non-Small Cell Lung Cancer), read-out: Inhibition% values at 10 μM concentration.
Source text: as §1

Assay [7] has as its system HOP-92. In words: NCI-60 antiproliferative screening, HOP-92. The format is cell-based. The conditions noted are these: Homo sapiens, HOP-92 (Non-Small Cell Lung Cancer), read-out: Inhibition% values at 10 μM concentration.
Source text: as §1

Assay [8] deals with NCI-H23. As to the kind of experiment: NCI-60 antiproliferative screening, NCI-H23. The assay is classed as cell-based. The conditions noted are these: Homo sapiens, NCI-H23 (Non-Small Cell Lung Cancer), read-out: Inhibition% values at 10 μM concentration.
Source text: as §1

Assay [9] concerns SF-268. In words: NCI-60 antiproliferative screening, SF-268. The assay is classed as cell-based. The conditions noted are these: Homo sapiens, SF-268 (CNS Cancer), read-out: Inhibition% values at 10 μM concentration.
Source text: as §1

The test system of assay [10] is SF-295. In words: NCI-60 antiproliferative screening, SF-295. The assay is classed as cell-based. The conditions noted are these: Homo sapiens, SF-295 (CNS Cancer), read-out: Inhibition% values at 10 μM concentration.
Source text: as §1

The test system of assay [11] is SNB-75. As to the kind of experiment: NCI-60 antiproliferative screening, SNB-75. The assay is classed as cell-based. The conditions noted are these: Homo sapiens, SNB-75 (CNS Cancer), read-out: Inhibition% values at 10 μM concentration.
Source text: as §1

The test system of assay [12] is U251. As to the kind of experiment: NCI-60 antiproliferative screening, U251. The assay is classed as cell-based. The conditions noted are these: Homo sapiens, U-251, U251 (CNS Cancer), read-out: Inhibition% values at 10 μM concentration.
Source text: as §1

Assay [13] deals with OVCAR-3. In words: NCI-60 antiproliferative screening, OVCAR-3. The format is cell-based. The conditions noted are these: Homo sapiens, OVCAR-3 (Ovarian Cancer), read-out: Inhibition% values at 10 μM concentration.
Source text: as §1

For assay [14], the system named is SK-OV-3. As to the kind of experiment: NCI-60 antiproliferative screening, SK-OV-3. The format is cell-based. The conditions noted are these: Homo sapiens, SK-OV-3 (Ovarian Cancer), read-out: Inhibition% values at 10 μM concentration.
Source text: as §1

The test system of assay [15] is ACHN. In words: NCI-60 antiproliferative screening, ACHN. The assay is classed as cell-based. The conditions noted are these: Homo sapiens, ACHN (Renal Cancer), read-out: Inhibition% values at 10 μM concentration.
Source text: as §1

In assay [16] the test system is CAKI-1. As to the kind of experiment: NCI-60 antiproliferative screening, CAKI-1. The assay is classed as cell-based. The conditions noted are these: Homo sapiens, CAKI-1 (Renal Cancer), read-out: Inhibition% values at 10 μM concentration.
Source text: as §1

For assay [17], the system named is UO-31. In words: NCI-60 antiproliferative screening, UO-31. The format is cell-based. The conditions noted are these: Homo sapiens, UO-31 (Renal Cancer), read-out: Inhibition% values at 10 μM concentration.
Source text: as §1

For assay [18], the system named is PC-3. As to the kind of experiment: NCI-60 antiproliferative screening, PC-3. The format is cell-based. The conditions noted are these: Homo sapiens, PC-3 (Prostate Cancer), read-out: Inhibition% values at 10 μM concentration.
Source text: as §1

T1 sequence (Q13547 whole entry): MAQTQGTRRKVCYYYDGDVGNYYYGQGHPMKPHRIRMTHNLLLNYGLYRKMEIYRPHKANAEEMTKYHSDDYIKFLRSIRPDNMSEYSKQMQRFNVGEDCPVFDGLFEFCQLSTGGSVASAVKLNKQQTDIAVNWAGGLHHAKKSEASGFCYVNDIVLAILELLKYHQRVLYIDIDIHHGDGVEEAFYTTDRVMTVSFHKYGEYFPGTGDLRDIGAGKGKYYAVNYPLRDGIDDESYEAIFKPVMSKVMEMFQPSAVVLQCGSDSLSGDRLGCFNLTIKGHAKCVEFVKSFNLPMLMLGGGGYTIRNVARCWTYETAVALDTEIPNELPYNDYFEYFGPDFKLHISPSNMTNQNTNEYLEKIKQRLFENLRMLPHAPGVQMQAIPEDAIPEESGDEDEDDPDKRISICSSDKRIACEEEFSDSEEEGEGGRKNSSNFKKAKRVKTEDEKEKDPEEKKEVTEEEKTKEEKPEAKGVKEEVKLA

`COc1cccc(-c2nc3c(c(-c4cccc(OC)c4)n2)CCN(C(=O)CCCCCCC(=O)NO)C3)c1` [Compound 8f, 8-(2,4-Bis(3-methoxyphenyl)-5,8-dihydropyrido [3,4-d]pyrimidin-7(6H)-yl)-N-hydroxy-8-oxooctanamide]: the IC50 was 308 nM in assay [1]; 6.4 nM in [2] (Table 1, duplicate, SD < 15%); 3250 nM in [3]. Further, the “selectivity over other subtypes” value in assay [2] (HDAC6 over other HDAC subtypes) is greater than 48 fold. The “Selectivity Index” value in assay [2] (Table 1, HDAC6 against HDAC1) was 48. Moreover, the “number of cell lines with percent inhibitions > 80%” value in assay [4] is listed as 56 cell lines. Moreover, the inhibition at 10 µM in [5] came to 85%; in [6], 87.7%; in [7], 100%; in [8] it was 100%; in [9], 92.2%; in [10], 100%. Also, the inhibition at 10 µM is 71% in assay [11]; 100% in assay [12]; 100% in assay [13]; 100% in [14]; 100% in [15]; 100% in [16]. In addition, the inhibition at 10 µM in [17] amounted to 100%; in assay [18] it was 83.3%.

The term IC50 denotes the concentration that inhibits the measured activity by half.
